# Results reported in patent publication US12091411B2, “IRAK degraders and uses thereof” (Kymera Therapeutics, Inc., priority 2022, dated 2024).
# Like-named read-outs stand apart in the source and are kept apart here.
# Target: T1, IRAK4 (Homo sapiens, UniProt Q9NWZ3)
# T1 construct: Degradation of IRAK4 in OCI-LY10 was quantitatively measured using Meso Scale Discovery technology; endogenous in cells; host or cells: OCI-LY10
# T1 sequence (Q9NWZ3 1-460): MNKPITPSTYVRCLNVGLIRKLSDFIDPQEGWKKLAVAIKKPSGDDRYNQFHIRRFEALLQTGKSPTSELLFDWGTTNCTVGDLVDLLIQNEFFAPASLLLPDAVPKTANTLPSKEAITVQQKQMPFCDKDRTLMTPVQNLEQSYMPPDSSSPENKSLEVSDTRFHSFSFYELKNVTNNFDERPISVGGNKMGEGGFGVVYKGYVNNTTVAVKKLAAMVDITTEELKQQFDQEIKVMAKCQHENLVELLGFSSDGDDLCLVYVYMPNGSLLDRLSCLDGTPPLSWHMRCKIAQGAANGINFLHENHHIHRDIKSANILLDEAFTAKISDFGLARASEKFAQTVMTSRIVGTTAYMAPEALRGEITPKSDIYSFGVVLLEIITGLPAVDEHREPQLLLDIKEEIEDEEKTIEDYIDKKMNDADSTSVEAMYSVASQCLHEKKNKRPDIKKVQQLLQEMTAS
# Assay: IRAK4 MSD Degradation in OCI-LY10
# Assay type: cell-based
# Conditions: OCI-LY10 cells, MSD
# In short: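 OCI-LY10 cells exposed to 8-point 1:3 compound series (top 1 to 10 μM) for 4 to 24 h at 37 °C, 5% CO2. Lysate IRAK4 quantified by MSD sandwich immunoassay. DC50 from three-parameter logistic fit, binned A (<0.01 μM) to D (>0.2 μM or not tested).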
# [1] = 4 hrs incubation, read-out: IRAK4 degradation in OCI-LY10 at 4 hrs: DC50
# [2] = 24 hrs incubation, read-out: IRAK4 degradation in OCI-LY10 at 24 hrs: DC50
Structure (SMILES),DC50 [1],DC50 [2]
Cn1c(=O)n(C2CCC(=O)NC2=O)c2ccc(N3CC(N4CCN([C@H]5CC[C@H](n6cc(NC(=O)c7cnn8ccc(N9C[C@H]%10C[C@@H]9CO%10)nc78)c(C(F)F)n6)CC5)CC4)C3)c(F)c21 (stereo partly drawn) [I-751],> 200 nM,> 200 nM
Cn1c(=O)n(C2CCC(=O)NC2=O)c2ccc(C3CN(C4CCN([C@H]5CC[C@H](n6cc(NC(=O)c7cnn8ccc(N9C[C@H]%10C[C@@H]9CO%10)nc78)c(C(F)F)n6)CC5)CC4(F)F)C3)c(F)c21 (stereo partly drawn) [I-752],> 200 nM,> 200 nM
Cn1c(=O)n(C2CCC(=O)NC2=O)c2ccc(F)c(C3CN(C4CCN([C@H]5CC[C@H](n6cc(NC(=O)c7cnn8ccc(N9C[C@H]%10C[C@@H]9CO%10)nc78)c(C(F)F)n6)CC5)CC4(F)F)C3)c21 (stereo partly drawn) [I-753],> 200 nM,> 200 nM
Cn1c(=O)n(C2CCC(=O)NC2=O)c2cccc(OC3CCN([C@H]4CC[C@H](n5cc6cc(NC(=O)c7cccc(C(F)(F)F)n7)ccc6n5)CC4)CC3(F)F)c21 (stereo partly drawn) [I-754],> 200 nM,> 200 nM
Cn1c(=O)n(C2CCC(=O)NC2=O)c2cccc(OC3CCN([C@H]4CC[C@H](n5cc6cc(NC(=O)c7cccc(C(F)(F)F)n7)ncc6n5)CC4)CC3(F)F)c21 (stereo partly drawn) [I-755],> 200 nM,> 200 nM
Cn1c(=O)n(C2CCC(=O)NC2=O)c2cccc(OC3CCN([C@H]4CC[C@H](n5cc(NC(=O)c6cnn7ccc(N8C[C@H]9C[C@@H]8CO9)nc67)c(C(F)F)n5)CC4)CC3(F)F)c21 (stereo partly drawn) [I-756],> 200 nM,> 200 nM
Cn1c(=O)n(C2CCC(=O)NC2=O)c2cccc(C#CCN3CCC(C[C@H]4CC[C@H](n5cc(NC(=O)c6cnn7ccc(N8C[C@H]9C[C@@H]8CO9)nc67)c(C(F)F)n5)CC4)CC3)c21 (stereo partly drawn) [I-757],> 200 nM,> 200 nM
Cn1c(=O)n(C2CCC(=O)NC2=O)c2cccc(C#CCN3CCC(C[C@H]4CC[C@H](n5cc6cc(NC(=O)c7cccc(C(F)(F)F)n7)ccc6n5)CC4)CC3)c21 (stereo partly drawn) [I-758],> 200 nM,> 200 nM
Cn1c(=O)n(C2CCC(=O)NC2=O)c2cccc(C#CCN3CCC(C[C@H]4CC[C@H](n5cc6cc(NC(=O)c7cccc(C(F)(F)F)n7)ncc6n5)CC4)CC3)c21 (stereo partly drawn) [I-759],> 200 nM,> 200 nM
Cn1c(=O)n(C2CCC(=O)NC2=O)c2cccc(N3CC(C4CCN([C@H]5CC[C@@H](n6cc(NC(=O)c7cnn8ccc(N9C[C@H]%10C[C@@H]9CO%10)nc78)c(C(F)F)n6)CC5)CC4(F)F)C3)c21 (stereo partly drawn) [I-760],> 200 nM,> 200 nM
Cn1c(=O)n(C2CCC(=O)NC2=O)c2cccc(N3CC(C4CCN(C[C@H]5CC[C@H](n6cc(NC(=O)c7cnn8ccc(N9C[C@H]%10C[C@@H]9CO%10)nc78)c(C(F)F)n6)CC5)CC4(F)F)C3)c21 (stereo partly drawn) [I-761],> 200 nM,> 200 nM
Cn1c(=O)n(C2CCC(=O)NC2=O)c2cccc(N3CC(C4CCN([C@H]5CC[C@H](n6cc(NC(=O)c7cnn8ccc(N9C[C@H]%10C[C@@H]9CO%10)nc78)c(C(F)F)n6)CC5)CC4(F)F)C3)c21 (stereo partly drawn) [I-762],> 200 nM,> 200 nM
Cn1c(=O)n(C2CCC(=O)NC2=O)c2cccc(N3CCN(C(=O)C[C@]4(O)CC[C@@H](n5cc(NC(=O)c6cnn7cccnc67)c(C(F)F)n5)CC4)CC3)c21 (stereo partly drawn) [I-763],> 200 nM,> 200 nM
Cn1c(=O)n(C2CCC(=O)NC2=O)c2cccc(N3CCN(C(=O)C[C@]4(O)CC[C@@H](n5cc6cc(NC(=O)c7cccc(C(F)(F)F)n7)ncc6n5)CC4)CC3)c21 (stereo partly drawn) [I-764],> 200 nM,> 200 nM
COc1cc(NC(=O)c2cccc(C(F)(F)F)n2)cc2cn([C@H]3CC[C@H](CN4CCN(c5c(F)ccc6c5n(C)c(=O)n6C5CCC(=O)NC5=O)CC4)CC3)nc12 (stereo partly drawn) [I-765],> 200 nM,> 200 nM
COc1nc(NC(=O)c2cccc(C(F)(F)F)n2)cc2cn([C@H]3CC[C@H](CN4CCN(c5cccc6c5n(C)c(=O)n6C5CCC(=O)NC5=O)CC4)CC3)nc12 (stereo partly drawn) [I-766],> 200 nM,> 200 nM
Cn1c(NC(=O)c2cccc(C(F)(F)F)n2)cc2cn([C@H]3CC[C@H](CN4CCN(c5cccc6c5n(C)c(=O)n6C5CCC(=O)NC5=O)CC4)CC3)nc2c1=O (stereo partly drawn) [I-767],> 200 nM,> 200 nM
Cc1cccc(C(=O)Nc2cc3cn([C@H]4CC[C@H](CN5CC[C@@H](c6cccc7c6n(C)c(=O)n7C6CCC(=O)NC6=O)[C@H](F)C5)CC4)nc3c(=O)n2C)n1 (stereo partly drawn) [I-768],> 200 nM,> 200 nM
COc1nc(NC(=O)c2cccc(C(F)(F)F)n2)cc2cn([C@H]3CC[C@H](CN4CCC(c5cccc6c5n(C)c(=O)n6C5CCC(=O)NC5=O)C(F)(F)C4)CC3)nc12 (stereo partly drawn) [I-769],> 200 nM,> 200 nM
COc1nc(NC(=O)c2cccc(C)n2)cc2cn([C@H]3CC[C@H](CN4CCC(c5cccc6c5n(C)c(=O)n6C5CCC(=O)NC5=O)C(F)(F)C4)CC3)nc12 (stereo partly drawn) [I-770],> 200 nM,> 200 nM
Cn1c(NC(=O)c2cccc(C(F)(F)F)n2)cc2cn([C@H]3CC[C@H](CN4CCC(c5cccc6c5n(C)c(=O)n6C5CCC(=O)NC5=O)C(F)(F)C4)CC3)nc2c1=O (stereo partly drawn) [I-771],> 200 nM,> 200 nM
Cc1cccc(C(=O)Nc2cc3cn([C@H]4CC[C@H](CN5CCC(c6cccc7c6n(C)c(=O)n7C6CCC(=O)NC6=O)C(F)(F)C5)CC4)nc3c(=O)n2C)n1 (stereo partly drawn) [I-772],> 200 nM,> 200 nM
COc1nc(NC(=O)c2cccc(C(F)(F)F)n2)cc2cn([C@H]3CC[C@H](CN4CC[C@@H](c5cccc6c5n(C)c(=O)n6C5CCC(=O)NC5=O)[C@H](F)C4)CC3)nc12 (stereo partly drawn) [I-773],> 200 nM,> 200 nM

# Further lines, results first:
DC50 [1],DC50 [2],Structure (SMILES)
> 200 nM,10 to 100 nM,Cn1c(=O)n(C2CCC(=O)NC2=O)c2ccc(N3CC4(CCN(C[C@H]5CC[C@H](n6cc7cc(NC(=O)c8cccc(C(F)(F)F)n8)ncc7n6)CC5)CC4(F)F)C3)c(F)c21 (stereo partly drawn) [I-737]
> 200 nM,< 10 nM,Cn1c(=O)n(C2CCC(=O)NC2=O)c2cccc(OC3CCN([C@H]4CC[C@H](n5cc(NC(=O)c6cnn7ccc(N8C[C@H]9C[C@@H]8CO9)nc67)c(C(F)F)n5)CC4)CC3)c21 (stereo partly drawn) [I-739]
> 200 nM,< 10 nM,Cn1c(=O)n(C2CCC(=O)NC2=O)c2cccc(OC3CCN([C@H]4CC[C@H](n5cc6cc(NC(=O)c7cccc(C(F)(F)F)n7)ncc6n5)CC4)CC3)c21 (stereo partly drawn) [I-740]
> 200 nM,< 10 nM,Cn1c(=O)n(C2CCC(=O)NC2=O)c2cccc(OC3CCN([C@H]4CC[C@H](n5cc6cc(NC(=O)c7cccc(C(F)(F)F)n7)ccc6n5)CC4)CC3)c21 (stereo partly drawn) [I-741]
> 200 nM,< 10 nM,Cn1c(=O)n(C2CCC(=O)NC2=O)c2ccc(N3CC(CO[C@@H]4CCN(C[C@H]5CC[C@H](n6cc(NC(=O)c7cnn8ccc(N9C[C@H]%10C[C@@H]9CO%10)nc78)c(C(F)F)n6)CC5)C[C@H]4F)C3)c(F)c21 (stereo partly drawn) [I-742]
> 200 nM,< 10 nM,Cn1c(=O)n(C2CCC(=O)NC2=O)c2ccnc(N3CCN([C@@H]4CCN(C[C@H]5CC[C@H](n6cc(NC(=O)c7cnn8ccc(N9C[C@H]%10C[C@@H]9CO%10)nc78)c(C(F)F)n6)CC5)CC4(F)F)CC3)c21 (stereo partly drawn) [I-743]
> 200 nM,< 10 nM,Cn1c(=O)n(C2CCC(=O)NC2=O)c2ccnc(N3CCN([C@H]4CCN(C[C@H]5CC[C@H](n6cc(NC(=O)c7cnn8ccc(N9C[C@H]%10C[C@@H]9CO%10)nc78)c(C(F)F)n6)CC5)CC4(F)F)CC3)c21 (stereo partly drawn) [I-744]
> 200 nM,< 10 nM,Cn1c(=O)n(C2CCC(=O)NC2=O)c2ccc(F)c(N3CC(N4CCN([C@H]5CC[C@H](n6cc(NC(=O)c7cnn8ccc(N9C[C@H]%10C[C@@H]9CO%10)nc78)c(C(F)F)n6)CC5)CC4)C3)c21 (stereo partly drawn) [I-745]
> 200 nM,> 200 nM,Cn1c(=O)n(C2CCC(=O)NC2=O)c2cccc(N3CCN([C@@H]4CCN(C[C@H]5CC[C@H](n6cc(NC(=O)c7cnn8ccc(N9CC%10(COC%10)C9)nc78)c(C(F)F)n6)CC5)CC4(F)F)CC3)c21 (stereo partly drawn) [I-746]
> 200 nM,> 200 nM,Cn1c(=O)n(C2CCC(=O)NC2=O)c2cccc(N3CCN([C@H]4CCN(C[C@H]5CC[C@H](n6cc(NC(=O)c7cnn8ccc(N9CC%10(COC%10)C9)nc78)c(C(F)F)n6)CC5)CC4(F)F)CC3)c21 (stereo partly drawn) [I-747]
> 200 nM,> 200 nM,Cn1c(=O)n(C2CCC(=O)NC2=O)c2cccc(N3CC(CN4CCN(C[C@H]5CC[C@H](n6cc(NC(=O)c7cnn8ccc(N9C[C@H]%10C[C@@H]9CO%10)nc78)c(C(F)F)n6)CC5)CC4)C3)c21 (stereo partly drawn) [I-748]
> 200 nM,> 200 nM,Cn1c(=O)n(C2CCC(=O)NC2=O)c2cccc(C3CN([C@@H]4CCN([C@H]5CC[C@H](n6cc(NC(=O)c7cnn8ccc(N9C[C@H]%10C[C@@H]9CO%10)nc78)c(C(F)F)n6)CC5)CC4(F)F)C3)c21 (stereo partly drawn) [I-749]
> 200 nM,> 200 nM,Cn1c(=O)n(C2CCC(=O)NC2=O)c2cccc(C3CN([C@H]4CCN([C@H]5CC[C@H](n6cc(NC(=O)c7cnn8ccc(N9C[C@H]%10C[C@@H]9CO%10)nc78)c(C(F)F)n6)CC5)CC4(F)F)C3)c21 (stereo partly drawn) [I-750]
